This is an account of results in patent publication US20150267232A1, “IN VIVO AND IN VITRO CARBENE INSERTION AND NITRENE TRANSFER REACTIONS CATALYZED BY HEME ENZYMES” (California Institute of Technology, priority 2012, published 2015).

A short description of the test: Intramolecular carbene C—H insertion, substrate 4.1a. In kind it is biochemical.

Regarding hemin, where the note is “10 mM 4.1a, 5% hemin, 10 mM Na2S2O4, product 4.2a”, the Yield % is recorded as 0%. Further, for the setting “substrates 4.1a and 4.1b, 10 μM variant or hemin at 5% catalyst loading, 16 h”, the “lactone formation via C—H bond insertion” value is “not catalyzed”.
